These results are taken from patent US9282738B2, “Antimicrobial compositions and methods of use thereof” (WISCONSIN ALUMNI RESEARCH FOUNDATION, priority 2011, dated 2016).

The structures appear in SMILES notation. Converted amounts (≈) assume the structure as drawn. Some results are limits rather than exact numbers.

The subject of test [1] is C. crescentus (strain CB15N). Briefly: Minimum inhibitory concentration (macrodilution), C. crescentus CB15N. Type of test: cell-based. The conditions noted are these: Caulobacter vibrioides. As for the experimental part:
(§1) All cultures were grown for 17 hrs.
Minimum inhibitory concentration for compounds 1, 6, 7, 8, and 9, determined as in Example 3 using the C. crescentus CB15N strain.

Test [2] has as its system MRSA strain of Staphylococcus aureus. The conditions noted are these: normally lethal dose of MRSA; cited from earlier work.
The subject of the next test is E. coli. The conditions noted are these: reported in the literature; cited from earlier work.
The test system of test [3] is C. crescentus strain (MT97) that expresses mipZ-yfp. Kind of test: In vivo screen of cell morphology (septation) by microscopy, C. crescentus. In kind it is cell-based, Caulobacter crescentus. The note with it: 20 μM in agarose pad, FIG. 3. As for the experimental part: In vivo screen with a Caulobacter crecentus strain that expresses MipZ-YFP: Hits from the in vitro screens were tested for their activity in vivo. A C. crescentus strain (MT97) that expresses mipZ-yfp from the native mipZ promoter was used. An overnight culture of MT97 was diluted to an OD600 of ˜0.1, and the diluted culture was further grown for at least an hour prior to treatment with the compound. Compounds were mixed with a solution of 1% agarose in M2G medium to achieve a final concentration of 20 μM. Cells were inoculated onto the surface of the compound-containing agarose pad (1 μL inoculum per pad), and we observed the cell morphology and localization of MipZ-YFP for a period of 24 hrs. In the time between microscopic observations, the inoculated pads were kept at 30° C. to promote growth.

The test system of test [4] is FtsB, FtsL, FtsK and FtsI localization in C. crescentus cells. Kind of test: Localization of fluorescently-tagged Fts proteins. Type of test: cell-based, Caulobacter crescentus. The conditions noted are these: late division stage cells vs DMSO control, FIG. 8C. As for the experimental part: Strains of C. crescentus that express fluorescently-tagged Fts proteins (FtsB, FtsL, FtsK, and FtsI) were cultured overnight. The overnight cultures were diluted 10-fold and incubated for an hour at 30° C. prior to compound treatment. Cells were induced with xylose (0.3%) to trigger the expression of fluorescently-tagged Fts proteins. After inducing with xylose for 45 min, cells were mounted on agarose pads and imaged as described in Example 4.
To analyze changes in the localization of Fts proteins, cells in the late division stage were selected for image analysis. At this stage of the cell cycle, cells have a visible constriction at the midcell, and the Fts proteins localize to the constriction site. […] Within the population of cells selected for a visible constriction, cells that have a single fluorescence focus of Fts proteins were counted. […] These cells have clear constrictions at the midcell as shown in brightfield images. In the fluorescence channel, the signal from Venus-FtsI is localized at the septum in the DMSO sample. In contrast, the fluorescence signal is more diffuse throughout the cell body in the sample treated with compound 1. […] The observed decrease in Fts protein localization in the presence of compound 1 was statistically significant when compared to the DMSO solvent control samples.

Another test has as its system Acinetobacter baumannii. Briefly: Minimum inhibitory concentration, pathogenic strain Acinetobacter baumannii. In kind it is cell-based. The procedure: as §1
A further test deals with Vibrio cholerae. Kind of test: Minimum inhibitory concentration, pathogenic strain Vibrio cholerae. Type of test: cell-based.
A further test deals with Escherichia coli. Briefly: Septation during reproduction, E. coli (FIG. 3). In kind it is cell-based.
The test system of the next test is C. crescentus CB15N. Kind of test: Viability of C. crescentus after exposure to antibiotics (colony counts). Type of test: cell-based, Caulobacter crescentus. The conditions noted are these: antibiotic at twice its MIC, FIG. 7.
The subject of a further test is Shigella boydii. Briefly: Minimum inhibitory concentration, pathogenic strain Shigella boydii. Type of test: cell-based. As for the experimental part: as §1
The test system of test [5] is C. crescentus CB15N cells. Kind of test: Reversibility of cell division inhibition after wash-out. In kind it is cell-based, Caulobacter crescentus. The note with it: pre-incubated with 6 μM for 2.5 hours, then diffused out on agarose pad, FIG. 10. The procedure: To test whether the inhibitory effect of compound 1 is reversible, the compound was washed out of pre-treated cells and their growth and division monitored using microscopy. A culture of C. crescentus CB15N cells was pre-incubated with 6 μM compound 1 for 2.5 hours at 30° C. A small aliquot of this culture was applied to an agarose pad (2% w/v agarose in PYE media), and the cells were imaged over time while incubating them on the microscope stage at 30° C.

The test system of test [6] is C. crescentus CB15N pMT182 (PxylX-mipZ). Briefly: Cell length microscopy with MipZ overexpression. Type of test: cell-based, Caulobacter crescentus. The note with it: 0.2% xylose induction, FIG. 4. The procedure:
(§2) Optical microscopy and image analysis: A Nikon Eclipse TE2000E inverted microscope with a Perfect Focus system and an encoded z-stage for phase contrast and epifluorescence microscopy was used. To observe the effect of Compound 1 on cell division, freshly grown cells from an overnight culture were treated with the compound. Small aliquots (1-2 μL) of the cells dosed with Compound 1 were mounted on 1% agarose pads for microscopy. To visualize FtsZ localization, MT196 cells (C. crescentus CB15N PvanA-ftsZ-yfp) were induced with vanilate (0.5 mM) for 1 hr prior to imaging. PSICIC, a MATLAB-based script, was used to measure cell lengths (n≧100) for the following strains of C. crescentus: CB15N, CB15N pMT182 (PxylX-mipZ, Cm^R), and CB15N ΔzapA. The CB15N pMT182 strain was treated with 0.2% xylose to induce overexpression of MipZ. For cells that could not be accurately detected by PSICIC, the cell length was manually traced in MetaMorph or ImageJ and the pixel traces were converted to microns. GraphPad InStat was used for statistical analysis of cell length distributions.

For test [7], the system named is E. coli ΔtolC. Briefly: Cephalexin-induced cell lysis and filamentation (optical density). Type of test: cell-based, Escherichia coli. The conditions noted are these: 10 μg/mL cephalexin plus compound 1 (0 to 12.5 μM), FIG. 9C.
Test [8] concerns E. coli ΔtolC. Kind of test: Minimum inhibitory concentration (macrodilution), E. coli ΔtolC. The note with it: Escherichia coli.
Protocol: Determination of the minimum inhibitory concentration (MIC): The MIC of the small molecule hits was determined using a macrodilution method. All cultures were grown in M8 medium at 37° C., except for C. crescentus (strain CB15N) which was cultured in PYE media at 30° C. C. crescentus and E. coli cultures were incubated while shaking at 200 rpm. Pathogenic clinical strains were grown in static conditions. All cultures were grown for 17 hrs.
For test [9], the system named is C. crescentus CB15N ΔzapA. Kind of test: Cell length microscopy in ΔzapA strain. In kind it is cell-based, Caulobacter crescentus. The conditions noted are these: FIGS. 5 and 6. As for the experimental part:
as §2

The mark [10] stands for this setting: C. crescentus CB15N strain, determined as in Example 3.

With `Cc1nc2ccccc2n1CCC(=O)N/N=C/c1ccccc1O` [Compound 9], 15 µM (≈ 4.84 µg/mL) was the least that counted as inhibitory in test [1] (setting [10]) (MIC).

As for `NC(=O)c1c(F)ccc(OCc2nc3cc(Cl)cnc3s2)c1F` [PC190723], in test [2], the “protection of mice from lethal infection” value is listed as “protect mice from a normally lethal dose of the MRSA strain of Staphylococcus aureus”. Moreover, the minimum inhibitory concentration (MIC) – broadly, the smallest concentration in the dilution series that meets the test's criterion for growth inhibition – in the test with E. coli was more than 180 µM.

For `Cc1nc2ccccc2n1CCC(=O)N/N=C/c1c(O)ccc2ccccc12` [Compound 1], the “effect on septation / cell morphology” value in test [3] was “inhibits septation during reproduction in C. crescentus”. Further, the “population of cells with midcell localization of Fts proteins” value in test [4] is “decreased the population of cells with a midcell localization of Fts proteins”. For the same molecule, the minimum inhibitory concentration (MIC) against Acinetobacter baumannii is 25 µM (≈ 9.31 µg/mL); in the test on Vibrio cholerae it was 0.4 µM (≈ 0.149 µg/mL); in the test with Shigella boydii, 50 µM (≈ 18.6 µg/mL); in test [1] (C. crescentus), 5 µM (≈ 1.86 µg/mL); in test [1] (setting [10]) it was 5 µM (≈ 1.86 µg/mL); against E. coli ΔtolC [8], 13.5 µM (≈ 5.03 µg/mL). Besides, in the test on Escherichia coli, the effect on septation result was “inhibits septation during reproduction”. Also, the “colony forming units over time” value with C. crescentus CB15N is on record as “did not significantly alter the colony forming units over time”. Moreover, the “reversibility of inhibitory effect on cell division” value in test [5] was “reversible”. The “effect on cell elongation caused by MipZ overexpression” value in test [6] is given as “rescues cell elongation caused by MipZ overexpression”. In addition, the “cell filamentation and lysis on co-treatment with cephalexin” value in the test with E. coli ΔtolC [7] is “elongated slowly and did not undergo cell lysis”. Further, the “effect on cell length in ΔzapA strain” value in test [9] is reported as “restores cell lengths to near normal lengths”.

For the molecule `O=C(CCn1c(C(F)(F)F)nc2ccccc21)N/N=C/c1c(O)ccc2ccccc12` [Compound 6], it took 7.5 µM (≈ 3.2 µg/mL) to inhibit growth in test [1] (setting [10]) (MIC).

Take `COc1ccc2ccccc2c1/C=N/NC(=O)CCn1c(C)nc2ccccc21` [Compound 8]: in [1] (setting [10]), the MIC was more than 20 µM.

In test [1] (setting [10]), `COc1ccc2ccccc2c1/C=N/NC(=O)CCn1c(C(F)(F)F)nc2ccccc21` [Compound 7] came in with an MIC of more than 20 µM.
